From patent US20170088520A1, “DEUBIQUITINASE INHIBITORS” (PharmAkea, Inc., priority 2014, published 2017)

Experiments:
Format in all cases: cell-based
[1] = target: T1, DUB activity in cells (NCI-H929, Z138, MM.1S, A375) (Homo sapiens, UniProt Q93008); experiment: HA-Ubiquitin-Vinylsulfone (HA-Ub-VS) cell labeling assay; conditions: compound tested at 5 μM; HA-Ub-VS labeling of USP9x in cells
T1 construct: endogenous in cells; host or cells: NCI-H929, Z138, MM.1S, A375
Experimental: Example B-1: HA-Ubiqutin-Vinylsulfone (HA-Ub-VS) Cell Labeling
Inhibitition of DUB activity is measured in cells (NCI-H929, Z138, MM.1S, A375) using a hemaglutinin-ubiquitin-vinylsulfone (HA-Ub-VS) labeling assay. Briefly, 1-2×10^6 cells are plated in 12-well plates in 1 ml complete growth media and 250 μl of test compound in 0.5% dimethylsulfoxide (or DMSO control) is added to each well. Plates are incubated at 37° C., 5% CO2 for 2-6 hours before cells are harvested into eppendorf tubes, washed once in PBS and resuspended in 100 μl cold lysis buffer (50 mM Tris pH 8, 150 mM NaCl, 0.5% NP-40, 2 mM phenylmethylsulfonyl fluoride and complete protease inhibitor tablet). Resupended cells are frozen on dry ice, then thawed and incubated on ice for 15 minutes. Tubes are centrifuged for 10 minutes at 14,000 rpm at 4° C. and the cleared supernatants transferred to clean tubes. […] The samples are incubated 15-60 min at 37° C. before the addition of SDS gel loading buffer. Proteins are separated by SDS-PAGE, transferred to nitrocellulose and the blot probed with anti-HA antibody and anti-β-actin antibodies. The HA and β-actin antibodies are detected using secondary antibodies coupled to IRdye 800 or IRdye 680 and visualized and quantitated using the LiCor Odyssey machine.
(§1) The following compounds were tested in the above assays at 5 μM: […]

[2] = test system: Mcl-1 expression in cells (NCI-H929, Z138, MM.1S, A-375); experiment: Analysis of Mcl-1 expression by Western blotting; conditions: compound tested at 5 μM; Western blot
Experimental: (§2) Example B-2: Analysis of Md-1 Expression and PARP Cleavage
(§3) The ability of test compounds to decrease expression of the tumor promoting protein, Mcl-1, and to induce the inactivation/cleavage of the PARP protein is evaluated in cells (NCI-H929, Z138, MM.1S, A-375) by Western blotting. Cells are plated and treated as described in the HA-Ub-VS cell labeling assay (see above). A portion of the cleared lysate (15-50 μl) is run on an SDS-polyacrylamide gel to separate proteins and then transferred to nitrocellulose. After transfer to nitrocellulose, the proteins are detected by probing the blot with anti-Mcl-1 and anti-PARP antibodies followed by secondary antibodies coupled to IRdye 800 and IRdye 680 and visualization and quantitation using a LiCor Odyssey machine. Activity of the test compound is identified as a significant decrease in Mcl-1 expression relative to the vehicle treated cells and to the appearance of a cleaved fragment of PARP relative to the vehicle-treated cells.
as §1

[3] = test system: PARP cleavage in cells (NCI-H929, Z138, MM.1S, A-375); experiment: Analysis of PARP cleavage by Western blotting; conditions: compound tested at 5 μM; Western blot
Experimental: as §2, §3, §1

T1 sequence (Q93008 whole entry): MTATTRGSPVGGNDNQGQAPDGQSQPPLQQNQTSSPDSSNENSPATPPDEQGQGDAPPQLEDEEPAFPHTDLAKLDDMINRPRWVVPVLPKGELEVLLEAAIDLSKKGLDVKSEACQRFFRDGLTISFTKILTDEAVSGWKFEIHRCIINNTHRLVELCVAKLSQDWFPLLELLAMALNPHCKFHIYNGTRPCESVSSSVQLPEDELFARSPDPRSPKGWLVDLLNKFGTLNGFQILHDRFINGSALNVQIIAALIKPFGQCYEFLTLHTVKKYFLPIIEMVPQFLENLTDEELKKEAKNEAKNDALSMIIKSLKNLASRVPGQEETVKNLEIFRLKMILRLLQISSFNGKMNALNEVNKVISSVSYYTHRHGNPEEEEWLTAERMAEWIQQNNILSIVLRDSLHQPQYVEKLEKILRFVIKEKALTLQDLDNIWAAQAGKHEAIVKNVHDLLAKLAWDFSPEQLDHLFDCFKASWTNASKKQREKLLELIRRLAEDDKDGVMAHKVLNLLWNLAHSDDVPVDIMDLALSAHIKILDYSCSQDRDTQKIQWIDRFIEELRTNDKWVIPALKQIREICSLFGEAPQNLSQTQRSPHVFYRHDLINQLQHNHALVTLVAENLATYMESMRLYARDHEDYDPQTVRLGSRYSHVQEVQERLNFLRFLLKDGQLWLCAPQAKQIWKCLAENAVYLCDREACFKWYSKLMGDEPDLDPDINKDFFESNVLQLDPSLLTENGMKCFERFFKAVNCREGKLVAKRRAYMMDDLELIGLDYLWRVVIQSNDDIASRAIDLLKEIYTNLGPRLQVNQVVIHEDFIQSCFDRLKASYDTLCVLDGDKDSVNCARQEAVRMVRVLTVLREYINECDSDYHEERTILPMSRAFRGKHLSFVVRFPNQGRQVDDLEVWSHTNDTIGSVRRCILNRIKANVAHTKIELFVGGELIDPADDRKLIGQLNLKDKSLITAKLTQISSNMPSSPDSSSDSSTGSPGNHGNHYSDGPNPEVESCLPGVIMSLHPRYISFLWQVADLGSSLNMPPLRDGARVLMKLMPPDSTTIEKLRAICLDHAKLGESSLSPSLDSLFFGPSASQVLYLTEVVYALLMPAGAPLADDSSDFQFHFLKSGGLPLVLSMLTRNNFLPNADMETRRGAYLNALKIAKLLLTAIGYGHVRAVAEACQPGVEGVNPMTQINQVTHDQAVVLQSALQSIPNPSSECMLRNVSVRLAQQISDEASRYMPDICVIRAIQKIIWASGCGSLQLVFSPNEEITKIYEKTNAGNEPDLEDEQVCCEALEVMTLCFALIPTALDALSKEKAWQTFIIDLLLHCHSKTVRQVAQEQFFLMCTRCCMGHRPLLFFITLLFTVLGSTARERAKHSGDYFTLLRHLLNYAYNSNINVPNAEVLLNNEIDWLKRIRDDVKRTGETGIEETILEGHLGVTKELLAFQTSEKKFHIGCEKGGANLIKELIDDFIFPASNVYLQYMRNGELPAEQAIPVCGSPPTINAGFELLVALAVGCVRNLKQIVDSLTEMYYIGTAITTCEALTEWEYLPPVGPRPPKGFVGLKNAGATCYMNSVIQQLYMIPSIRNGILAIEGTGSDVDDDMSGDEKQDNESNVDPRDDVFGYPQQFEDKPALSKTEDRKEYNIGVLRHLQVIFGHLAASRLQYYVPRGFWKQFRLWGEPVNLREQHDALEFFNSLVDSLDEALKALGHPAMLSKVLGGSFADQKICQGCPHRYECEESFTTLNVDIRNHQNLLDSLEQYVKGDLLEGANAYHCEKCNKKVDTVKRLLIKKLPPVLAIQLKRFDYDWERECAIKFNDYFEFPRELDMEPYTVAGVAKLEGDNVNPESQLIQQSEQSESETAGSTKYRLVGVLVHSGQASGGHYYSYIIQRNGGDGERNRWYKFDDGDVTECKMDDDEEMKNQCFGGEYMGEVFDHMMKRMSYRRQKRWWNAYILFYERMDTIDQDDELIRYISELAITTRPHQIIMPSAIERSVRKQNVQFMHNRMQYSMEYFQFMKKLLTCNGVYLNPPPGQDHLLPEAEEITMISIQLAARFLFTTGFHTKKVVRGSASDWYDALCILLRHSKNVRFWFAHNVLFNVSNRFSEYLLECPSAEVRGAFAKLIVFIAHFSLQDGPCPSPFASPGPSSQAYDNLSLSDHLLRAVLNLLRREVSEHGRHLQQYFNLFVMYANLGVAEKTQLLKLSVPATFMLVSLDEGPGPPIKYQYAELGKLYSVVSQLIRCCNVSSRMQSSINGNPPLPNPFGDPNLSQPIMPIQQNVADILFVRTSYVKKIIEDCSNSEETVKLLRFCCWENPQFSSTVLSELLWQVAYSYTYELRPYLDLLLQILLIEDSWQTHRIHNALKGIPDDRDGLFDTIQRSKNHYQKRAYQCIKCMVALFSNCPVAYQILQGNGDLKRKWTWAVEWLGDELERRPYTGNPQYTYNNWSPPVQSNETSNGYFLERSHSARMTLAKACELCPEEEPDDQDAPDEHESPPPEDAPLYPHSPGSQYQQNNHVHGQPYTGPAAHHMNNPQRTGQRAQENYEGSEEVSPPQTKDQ

inhibition at 5 µM [1] [%]	Compound	inhibition at 5 µM [2] [%]	PARP cleavage % Inhibition [3]
< 25	N#C/C(=C\c1cccc(C2CC2)n1)C(=O)NC1(c2ccc(-c3cccc(C(=O)O)c3)cc2)CCCC1 [Compound 82, (E)-4′-(1-(2-cyano-3-(6-cyclopropylpyridin-2-yl)acrylamido)cyclopentyl)-[1,1′-biphenyl]-3-carboxylic acid]	50 to 75	A (A is ≧75% inhibition)
≥ 75	N#C/C(=C\c1ncc(Br)cc1Br)C(=O)NC1(c2ccc(Cl)cc2)CCCC1 [Compound 22, (E)-N-(1-(4-Chlorophenyl)cyclopentyl)-2-cyano-3-(3,5-dibromopyridin-2-yl)acrylamide]	≥ 75	A (A is ≧75% inhibition)
< 25	N#C/C(=C\c1cccc(Br)n1)C(=O)NC1(c2ccc(-c3ccc4[nH]ncc4c3)cc2)CCCC1 [Compound 95, (E)-N-(1-(4-(1H-indazol-5-yl)phenyl)cyclopentyl)-3-(6-bromopyridin-2-yl)-2-cyanoacrylamide]	< 25	D (D is <25% inhibition)
≥ 75	N#C/C(=C\c1ncc(Br)cc1Br)C(=O)NC1(c2ccccc2)CCCC1 [Compound 4, (E)-3-(3,5-Dibromopyridin-2-yl)-2-cyano-N-(1-phenylcyclopentyl)acrylamide]	≥ 75	A (A is ≧75% inhibition)
< 25	CCCCCCCCCCCCCC(=O)OCc1ccc(C2(NC(=O)/C(C#N)=C/c3cccc(Br)n3)CCCC2)cc1 [Compound 84, (E)-4-(1-(3-(6-bromopyridin-2-yl)-2-cyanoacrylamido)cyclopentyl)benzyl tetradecanoate]	< 25	D (D is <25% inhibition)
< 25	N#C/C(=C\c1cccc(C#CC2(O)CCCC2)n1)C(=O)NC1(c2ccncc2)CCCC1 [Compound 3-5]	< 25	D (D is <25% inhibition)
50 to 75	COC(=O)c1cccc(C2(NC(=O)/C(C#N)=C/c3cccc(Br)n3)CCCC2)c1 [Compound 48, (E)-methyl 3-(1-(3-(6-bromopyridin-2-yl)-2-cyanoacrylamido)cyclopentyl)benzoate]	< 25	A (A is ≧75% inhibition)
< 25	CCOc1ncc(C(F)(F)F)cc1-c1ccc(C2(NC(=O)/C(C#N)=C/c3ncc(Br)cc3Br)CCCC2)cc1 [Compound 54, (E)-2-cyano-3-(3,5-dibromopyridin-2-yl)-N-(1-(4-(2-ethoxy-5-(trifluoromethyl)pyridin-3-yl)phenyl)cyclopentyl)acrylamide]	< 25	C (C is 25% to 50% inhibition)
≥ 75	C=C(C)c1ccc(C2(NC(=O)/C(C#N)=C/c3ncc(Br)cc3Br)CCCC2)cc1 [Compound 63, (E)-2-cyano-3-(3,5-dibromopyridin-2-yl)-N-(1-(4-(prop-1-en-2-yl)phenyl)cyclopentyl)acrylamide]	≥ 75	A (A is ≧75% inhibition)
≥ 75	N#C/C(=C\c1ncc(Br)cc1Br)C(=O)NC1(c2cccc(Cl)c2)CCCC1 [Compound 20, (E)-N-(1-(3-Chlorophenyl)cyclopentyl)-2-cyano-3-(3,5-dibromopyridin-2-yl)acrylamide]	≥ 75	A (A is ≧75% inhibition)
25 to 50	N#C/C(=C\c1cccc(C#CCN2CCOCC2)n1)C(=O)NC1(c2ccccc2)CCCC1 [Compound 55, (E)-2-cyano-3-(6-(3-morpholinoprop-1-yn-1-yl)pyridin-2-yl)-N-(1-phenylcyclopentyl)acrylamide]	< 25	A (A is ≧75% inhibition)
≥ 75	CC(C)(C)OC(=O)c1cc(-c2cccc(/C=C(\C#N)C(=O)NC3(c4ccccc4)CCCC3)n2)cnc1Cl [Compound 49]	≥ 75	A (A is ≧75% inhibition)
≥ 75	N#C/C(=C\c1cccc(-c2ccc(N3CCOCC3)nc2)n1)C(=O)NC1(c2ccccc2)CCCC1 [Compound 57, (E)-2-cyano-3-(6′-morpholino-[2,3′-bipyridin]-6-yl)-N-(1-phenylcyclopentyl)acrylamide]	≥ 75	A (A is ≧75% inhibition)
50 to 75	COC(=O)c1cccc(-c2cccc(/C=C(\C#N)C(=O)NC3(c4ccccc4)CCCC3)n2)c1 [Compound 34]	25 to 50	A (A is ≧75% inhibition)
≥ 75	N#C/C(=C\c1ncc(Br)cc1Br)C(=O)NC1(c2ccc(C#CCN3CCOCC3)cc2)CCCC1 [Compound 50, (E)-2-cyano-3-(3,5-dibromopyridin-2-yl)-N-(1-(4-(3-morpholinoprop-1-yn-1-yl)phenyl)cyclopentyl)acrylamide]	≥ 75	A (A is ≧75% inhibition)
25 to 50	N#C/C(=C\c1cccc(-c2ccc(N3CCCCC3)nc2)n1)C(=O)NC1(c2ccccc2)CCCC1 [Compound 65, (E)-2-cyano-N-(1-phenylcyclopentyl)-3-(6′-(piperidin-1-yl)-[2,3′-bipyridin]-6-yl)acrylamide]	< 25	B (B is 50% to 75% inhibition)
≥ 75	N#C/C(=C\c1cccc(Br)n1)C(=O)NC1(c2ccc(C#CC3(O)CCCC3)cc2)CCCC1 [Compound 76, (E)-3-(6-bromopyridin-2-yl)-2-cyano-N-(1-(4-((1-hydroxycyclopentyl)ethynyl)phenyl)cyclopentyl)acrylamide]	≥ 75	A (A is ≧75% inhibition)
25 to 50	CCOc1ncc(C(F)(F)F)cc1-c1cccc(/C=C(\C#N)C(=O)NC2(c3ccccc3)CCCC2)n1 [Compound 47, (E)-2-cyano-3-(2′-ethoxy-5′-(trifluoromethyl)-[2,3′-bipyridin]-6-yl)-N-(1-phenylcyclopentyl)acrylamide]	50 to 75	A (A is ≧75% inhibition)
25 to 50	N#C/C(=C\c1cccc(-c2cccnc2)n1)C(=O)NC1(c2ccccc2)CCCC1 [Compound 30, (E)-3-([2,3′-bipyridin]-6-yl)-2-cyano-N-(1-phenylcyclopentyl)acrylamide]	25 to 50	A (A is ≧75% inhibition)
50 to 75	CC(C)(C)OC(=O)c1cccc(-c2cccc(/C=C(\C#N)C(=O)NC3(c4ccccc4)CCCC3)n2)c1 [Compound 56, (E)-tert-butyl 3-(6-(2-cyano-3-oxo-3-((1-phenylcyclopentyl)amino)prop-1-en-1-yl)pyridin-2-yl)benzoate]	≥ 75	A (A is ≧75% inhibition)
≥ 75	N#C/C(=C\c1cccc(Br)n1)C(=O)NC1(c2ccc(Br)cc2)CCCC1 [Compound 15, (E)-N-(1-(4-bromophenyl)cyclopentyl)-3-(6-bromopyridin-2-yl)-2-cyanoacrylamide]	≥ 75	A (A is ≧75% inhibition)
50 to 75	N#C/C(=C\c1cccc(-c2ccc3[nH]ncc3c2)n1)C(=O)NC1(c2ccccc2)CCCC1 [Compound 70, (E)-3-(6-(1H-indazol-5-yl)pyridin-2-yl)-2-cyano-N-(1-phenylcyclopentyl) acrylamide]	≥ 75	A (A is ≧75% inhibition)
25 to 50	CCOC(=O)CN1CCc2ccc(-c3cccc(/C=C(\C#N)C(=O)NC4(c5ccccc5)CCCC4)n3)cc2C1 [Compound 97, (E)-ethyl 2-(7-(6-(2-cyano-3-oxo-3-((1-phenylcyclopentyl)amino)prop-1-en-1-yl)pyridin-2-yl)-3,4-dihydroisoquinolin-2(1H)-yl)acetate]	< 25	B (B is 50% to 75% inhibition)
